# From patent US20050152842A1, “Poly (L-glutamic acid) paramagnetic material complex and use as a biodegradable MRI contrast agent” (priority 2003, published 2005)
# Columns and labels:
# [1] = MRI studies of vascular enhancement and intravascular retention in mice; assay type: in vivo; settings: dose of 0.1 mmol/kg, intravenous
# Experimental: For MRI studies using complexes prepared as described in the earlier examples, mice were anesthetized with 1-2% isoflurane in a 1 L/min O2 flow and place prone within a custom sled. A custom catheter made from 2 Fr silicon tubing and a 27 gauge needle was inserted in the tail vein of the mouse. Gd-DTPA ([…]) or PG-Hex-DTPA-Gd (0.004 mmol Gd/ml, 0.02 mmol Gd/kg) was injected through the catheter and the catheter flushed with normal saline. Two-dimensional coronal section spin-echo images were obtained before and at 2 hours and 24 hours after contrast agent injection using a 2.5 cm quadrature birdcage coil on a 1.5 T Sigma LX MR scanner (GE Medical Systems, WI). Six 1.5 mm contiguous sections were obtained using a 6 cm field-of-view, a 256×192 acquisition matrix and 4 averages. Similar studies were performed with PEG/PG-Hex-DTPA-Gd.
# A fast spoiled gradient-echo sequence was used to obtain the data from 8 anatomic sections with 7.1 s temporal resolution. Other acquisition parameters were echo time: 1.4 ms, repetition time: 40 ms, flip angle: 35°, acquisition matrix size: 128×128. […] Such long intravascular retention times are useful for contrast-enhanced MR angiography, for assessment of microvascular volume, and for characterizing changes in permeability of highly “leaky” vasculature. Retention of the contrast in the tumor was also noted in the same time period (FIG. 6B).
# [2] = 1.5 Tesla in phosphate-buffered saline; from Unger et al. 1999; cited from earlier work
# Cathepsin B = Cathepsin B (Homo sapiens, UniProt P07858)
# Experimental: PG-Hex-BzDTPA-Gd was dissolved in PBS buffer (pH 5) at a concentration of 5.3 mg/ml. Cathepsin B, which is able to degrade the complex, was added to the solution to a final concentration of 10 units/ml. The degradation was monitored at different time intervals using a gel permeation chromatography (GPC) system equipped with an TSK G3000PW column (TosoHaas), a Waters 515 HPLC pump, and a Viscotek E-Z^pro triple detector array. The system was eluted with PBS buffer containing 0.1% LiBr (pH 7.4) at a flow rate of 1 ml/min.
Time in which the polymer was almost completely degraded (Cathepsin B),Degradation on incubation with Cathepsin B (in words) (Cathepsin B; pH 5),Molecule,Vascular enhancement 2 hours after injection [1],Relaxivity R1 [2]
–,–,O=C([O-])CN(CCN(CC(=O)[O-])CC(=O)O)CCN(CC(=O)[O-])CC(=O)O.[Gd+3] [DTPA-Gd],not detected,4.1 mM^−1Sec^−1
100 min,rapidly degraded,poly(L-glutamic acid) [PG],–,–
